Laboratory results taken from patent US20250098675A1, “A METHOD OF CONTROLLING RESISTANT AND NON-RESISTANT PESTS” (UPL CORPORATION LIMITED, priority 2021, published 2025).
Where two headings read alike, the source gives them in different places.

How the values were obtained:
Format in all cases: in vivo
Mahanarva fimbriolata = experiment: Field trial, % control of Mahanarva fimbriolata nymphs and adult insects in sugarcane
Procedure: Trials were carried out in field to assess efficacy of flupyrimin against Mahanarva fimbriolata. Evaluation was done to check % control of nymphs and adult insects at intervals of 30 DAA and 60 DAA (for nymphs) and 7, 30 and 60 DAA (for adult insects). The efficacy was compared with standard insecticides thiamethoxam and ethiprole.

[1] = test system: larvae Sphenophorus levis; experiment: Larvae bioassay, residual contact and ingestion, dipped sugarcane stalks; details: for Larvae efficacy control (%): 1DAA
Procedure: The efficacy of flupyrimin was determined against the larvae stage of Sphenophorus levis. Accordingly, the larvae bioassay method was residual contact and ingestion. The sugarcane stalks were dipped in a insecticide solution then placed on a papart towel to dry. The sugarcane stalks were placed in glass tubes, then S. levis first stage and last instar lavae were introduced in each tube separately. The mortality achieved was 100% at 1 DAA. The treatments condidtions and the results are depicted in Table 8 below: […]

[2] = test system: resistant Mahanarva fimbriolata; experiment: Greenhouse pot trial, drench, mortality of resistant nymphs; details: for mortality at 250 g/ha / mortality at 400 g/ha: Mahanarva fimbriolata, soil; for mortality at 250 g/ha: read-out: Mortality (%) of Nymphs-Resistant population % Mortality, 250 g.a.i/ha; for mortality at 400 g/ha: read-out: Mortality (%) of Nymphs-Resistant population % Mortality, 400 g.a.i/ha
Procedure: The sugarcane plants were sown under greenhouse in pots. Artificially, each pot was infested with 10 nymphs in 3rd/4th instar. Infestation was done 24 h before of application for insect acclimatization. The treatments were applied via drenching, after infestation. The assessments were made at 3 and 5 days after infestation in 4 replications.

adult Sphenophorus levis = experiment: Control efficacy against adults, plots sprayed
Procedure: The efficacy of flupyrimin was determined against adult and the larvae stage of Sphenophorus levis. To evaluate the efficacy of flupyrimin plots with ten Sphenophorus levis adults were populated. Flupyrimin at a concentration of 500 g/L was used to treat the plots by spraying. Each plot received a 10 cm splitted lengthwise suarcane stem piece as feed and accordingly each plot was subjected to treatment conditions as depicted in the table below.

Compound: O=C(N=c1ccccn1Cc1ccc(Cl)nc1)C(F)(F)F [Flupyrimin, flupyrimin]
- Adults % Control (Mahanarva fimbriolata; 150 g a.i./ha, 7 DAA): 80%
- Adults % Control (Mahanarva fimbriolata; 150 g a.i./ha, 30 DAA): 100%
- Nymphs % Control (Mahanarva fimbriolata; 150 g a.i./ha, 30 DAA): 62%
- Adults % Control (Mahanarva fimbriolata; 150 g a.i./ha, 60 DAA): 75%
- Nymphs % Control (Mahanarva fimbriolata; 150 g a.i./ha, 60 DAA): 95%
- Adults % Control (Mahanarva fimbriolata; 200 g a.i./ha, 7 DAA): 80%
- Adults % Control (Mahanarva fimbriolata; 200 g a.i./ha, 30 DAA): 50%
- Nymphs % Control (Mahanarva fimbriolata; 200 g a.i./ha, 30 DAA): 97%
- Adults % Control (Mahanarva fimbriolata; 200 g a.i./ha, 60 DAA): 100%
- Nymphs % Control (Mahanarva fimbriolata; 200 g a.i./ha, 60 DAA): 95%
- Adults % Control (Mahanarva fimbriolata; 250 g a.i./ha, 7 DAA): 60%
- Adults % Control (Mahanarva fimbriolata; 250 g a.i./ha, 30 DAA): 100%
- Nymphs % Control (Mahanarva fimbriolata; 250 g a.i./ha, 30 DAA): 92%
- Adults % Control (Mahanarva fimbriolata; 250 g a.i./ha, 60 DAA): 50%
- Nymphs % Control (Mahanarva fimbriolata; 250 g a.i./ha, 60 DAA): 100%
- Nymphs % Control (Mahanarva fimbriolata; 250 g a.i./ha, 60 DAA, listed as flupyrimin): complete control
- Adults % Control (Mahanarva fimbriolata; 300 g a.i./ha, 7 DAA): 40%
- Adults % Control (Mahanarva fimbriolata; 300 g a.i./ha, 30 DAA): 25%
- Nymphs % Control (Mahanarva fimbriolata; 300 g a.i./ha, 30 DAA): 81%
- Adults % Control (Mahanarva fimbriolata; 300 g a.i./ha, 60 DAA): 100%
- Nymphs % Control (Mahanarva fimbriolata; 300 g a.i./ha, 60 DAA): 95%
- Larvae efficacy control (%) ([1]; 150 g of a.i/ha (0.30 kg-l/ha)): 100%
- Larvae efficacy control (%) ([1]; 250 g of a.i/ha (0.50 kg-l/ha)): 100%
- Larvae efficacy control (%) ([1]; 300 g of a.i/ha (0.60 kg-l/ha)): 100%
- Larvae efficacy control (%) ([1]; 500 g of a.i/ha (1.00 kg-l/ha)): 100%
- mortality of S. levis larvae ([1]; first stage and last instar larvae, 1 DAA, no dose stated): 100%
- Mortality (%) of Nymphs-Resistant population % Mortality ([2]; 150 g.a.i/ha, 0 DAA 3 DAI): 85%
- Mortality (%) of Nymphs-Resistant population % Mortality ([2]; 150 g.a.i/ha, 0 DAA 5 DAI): 98%
- Mortality (%) of Nymphs-Resistant population % Mortality ([2]; 200 g.a.i/ha, 0 DAA 3 DAI): 97%
- Mortality (%) of Nymphs-Resistant population % Mortality ([2]; 200 g.a.i/ha, 0 DAA 5 DAI): 100%
- Mortality (%) of Nymphs-Resistant population % Mortality ([2]; 250 g.a.i/ha, 0 DAA 3 DAI): 98%
- Mortality (%) of Nymphs-Resistant population % Mortality ([2]; 250 g.a.i/ha, 0 DAA 5 DAI): 98%
- Mortality (%) of Nymphs-Resistant population % Mortality ([2]; 300 g.a.i/ha, 0 DAA 3 DAI): 97%
- Mortality (%) of Nymphs-Resistant population % Mortality ([2]; 300 g.a.i/ha, 0 DAA 5 DAI): 100%
- control of resistant nymphs (in words) ([2]; summary of the table, no dose stated): effective in completely controlling resistant nymphs
- control of S. levis adults (in words) (adult Sphenophorus levis; 9 DAA, no dose stated): almost complete control
- Adults efficacy control (%) (adult Sphenophorus levis; 150 g of a.i/ha (0.30 kg-l/ha), 1DAA): 46.3%
- Adults efficacy control (%) (adult Sphenophorus levis; 150 g of a.i/ha (0.30 kg-l/ha), second value column, time not printed): 75.1%
- Adults efficacy control (%) (adult Sphenophorus levis; 150 g of a.i/ha (0.30 kg-l/ha), third value column, time not printed): 97.3%
- Adults efficacy control (%) (adult Sphenophorus levis; 250 g of a.i/ha (0.50 kg-l/ha), 1DAA): 61.0%
- Adults efficacy control (%) (adult Sphenophorus levis; 250 g of a.i/ha (0.50 kg-l/ha), second value column, time not printed): 80.9%
- Adults efficacy control (%) (adult Sphenophorus levis; 250 g of a.i/ha (0.50 kg-l/ha), third value column, time not printed): 100%
- Adults efficacy control (%) (adult Sphenophorus levis; 300 g of a.i/ha (0.60 kg-l/ha), 1DAA): 59.5%
- Adults efficacy control (%) (adult Sphenophorus levis; 300 g of a.i/ha (0.60 kg-l/ha), second value column, time not printed): 79.5%
- Adults efficacy control (%) (adult Sphenophorus levis; 300 g of a.i/ha (0.60 kg-l/ha), third value column, time not printed): 99.1%
- Adults efficacy control (%) (adult Sphenophorus levis; 500 g of a.i/ha (1.00 kg-l/ha), 1DAA): 56.9%
- Adults efficacy control (%) (adult Sphenophorus levis; 500 g of a.i/ha (1.00 kg-l/ha), second value column, time not printed): 79.9%
- Adults efficacy control (%) (adult Sphenophorus levis; 500 g of a.i/ha (1.00 kg-l/ha), third value column, time not printed): 97.3%

Compound: CN1COCN(Cc2cnc(Cl)s2)/C1=N\[N+](=O)[O-] [Thiamethoxam, thiamethoxam]
- Adults % Control (Mahanarva fimbriolata; 250 g a.i./ha, 7 DAA): 60%
- Adults % Control (Mahanarva fimbriolata; 250 g a.i./ha, 30 DAA): 50%
- Nymphs % Control (Mahanarva fimbriolata; 250 g a.i./ha, 30 DAA): 86%
- Adults % Control (Mahanarva fimbriolata; 250 g a.i./ha, 60 DAA): 75%
- Nymphs % Control (Mahanarva fimbriolata; 250 g a.i./ha, 60 DAA): 90%
- mortality at 250 g/ha ([2]; 0 DAA 3 DAI): 23%
- mortality at 250 g/ha ([2]; 0 DAA 5 DAI): 25%

Compound: CC[S+]([O-])c1c(C#N)nn(-c2c(Cl)cc(C(F)(F)F)cc2Cl)c1N (centres unmarked) [Ethiprole, ethiprole]
- Adults % Control (Mahanarva fimbriolata; 400 g a.i./ha, 7 DAA): 100%
- Adults % Control (Mahanarva fimbriolata; 400 g a.i./ha, 30 DAA): 100%
- Nymphs % Control (Mahanarva fimbriolata; 400 g a.i./ha, 30 DAA): 95%
- Adults % Control (Mahanarva fimbriolata; 400 g a.i./ha, 60 DAA): 100%
- Nymphs % Control (Mahanarva fimbriolata; 400 g a.i./ha, 60 DAA): 100%
- mortality at 400 g/ha ([2]; 0 DAA 3 DAI): 33%
- mortality at 400 g/ha ([2]; 0 DAA 5 DAI): 45%
